Test results: patent publication US7521472B2, “Crystal of two-ring heterocyclic sulfonamide compound” (Eisai R&D Management Co., Ltd., priority 2004, dated 2009)

How the values were obtained:
Type in all cases: physicochemical
[1] = Solubility of α-type and β-type crystals in Britton-Robinson buffers (I=0.3); details: for Solvent amount (ml) required to solve 1 g of compound (1): 25° C. within 30 minutes
Description: (§1) The results are shown in Tables 5 to 8. • (1) Test method:
(§2) The solubility in organic solvents and buffer solutions (Britton-Robinson Buffer: ionic strength (I)=0.3) was examined.
(§3) Specifically, according to the method described in USP 25 (U.S. PHARMACOPEIA 25(USP25), p 8, General Notices, Solubility), crystalline N-(3-chloro-1H-indol-7-yl)-4-sulfamoylbenzenesulfonamide was evaluated in terms of solubility in various organic solvents and Britton-Robinson buffers (pH 3, 5, 7, 9, and 11; I=0.3). The amount of each solvent was recorded that was required to solve a 10-mg sample of (N-(3-chloro-1H-indol-7-yl)-4-sulfamoylbenzenesulfonamide) at 25° C. within 30 minutes. In this study, the container was vigorously shaken for 30 seconds every 5 minutes, and the solubility was visually checked. • (2) Results: […]

[2] = Solubility of α-type and β-type crystals in organic solvents and water (USP 25 method); details: for Solvent amount (ml) required to solve 1 g of compound (1): 25° C. within 30 minutes
Description: as §1, §2, §3

[3] = Physical properties of the β-type crystal (crystal form stability, hygroscopicity)
[4] = Britton-Robinson Buffer pH 3, I=0.3
[5] = Britton-Robinson Buffer pH 5, I=0.3
[6] = Britton-Robinson Buffer pH 7, I=0.3
[7] = Britton-Robinson Buffer pH 9, I=0.3
[8] = Britton-Robinson Buffer pH 11, I=0.3

Solvent amount (ml) required to solve 1 g of compound (1) [1, 4]	Solvent amount (ml) required to solve 1 g of compound (1) [1, 5]	Solvent amount (ml) required to solve 1 g of compound (1) [1, 6]	Solvent amount (ml) required to solve 1 g of compound (1) [1, 7]	Solvent amount (ml) required to solve 1 g of compound (1) [1, 8]	solubility in the buffer solution compared with the α-type crystal ([1]; Britton-Robinson Buffer, ionic strength 0.3)	Solvent amount (ml) required to solve 1 g of compound (1) ([2]; 1-octanol)	Solvent amount (ml) required to solve 1 g of compound (1) ([2]; Acetone)	Solvent amount (ml) required to solve 1 g of compound (1) ([2]; Acetonitrile)	Solvent amount (ml) required to solve 1 g of compound (1) ([2]; Ethanol)	Solvent amount (ml) required to solve 1 g of compound (1) ([2]; Ethyl acetate)	Solvent amount (ml) required to solve 1 g of compound (1) ([2]; Heptane)	Solvent amount (ml) required to solve 1 g of compound (1) ([2]; Isopropylether)	Solvent amount (ml) required to solve 1 g of compound (1) ([2]; Methanol)	Solvent amount (ml) required to solve 1 g of compound (1) ([2]; N,N-dimethylformamide)	Solvent amount (ml) required to solve 1 g of compound (1) ([2]; Water)	solubility in various organic solvents in comparison with the α-type crystal ([2]; for example, ethanol, ethyl acetate)	hygroscopicity [3]	stability of the crystal form ([3]; transformation into other crystal forms or amorphous forms)	Structure (SMILES)
>10000 mL	>10000 mL	>10000 mL	>10000 mL	553 mL	higher solubility	>10000 mL	14 mL	74 mL	373 mL	322 mL	>10000 mL	>10000 mL	60 mL	6 mL	>10000 mL	high solubility	non hygroscopicity	stable	NS(=O)(=O)c1ccc(S(=O)(=O)Nc2cccc3c(Cl)c[nH]c23)cc1 [compound (1) (β-type crystal), N-(3-chloro-1H-indol-7-yl)-4-sulfamoylbenzenesulfonamide]
>10000 mL	>10000 mL	>10000 mL	>10000 mL	993 mL		>10000 mL	21 mL	97 mL	1194 mL	1090 mL	>10000 mL	>10000 mL	100.4 mL	9.6 mL	>10000 mL				NS(=O)(=O)c1ccc(S(=O)(=O)Nc2cccc3c(Cl)c[nH]c23)cc1 [compound (1) (α-type crystal), N-(3-chloro-1H-indol-7-yl)-4-sulfamoylbenzenesulfonamide, reference compound]
